In patent US20120015957A1, “PIPERAZINYL DERIVATIVES USEFUL AS MODULATORS OF THE NEUROPEPTIDE Y2 RECEPTOR” (priority 2007, published 2012):

Columns and labels:
NPY Y2 receptor [1] = target: T1, NPY Y2 receptor (Homo sapiens, UniProt P49146); test: Neuropeptide Y2 pKB assay (FLIPR, KAN-Ts cells stably expressing chimeric G proteins); type: cell-based; conditions: apparent pKB, FLIPR calcium, KAN-Ts cells with chimeric G proteins; modified Cheng-Prusoff correction
T1 construct: endogenous in cells; host or cells: KAN-Ts cells (membrane preparation)
T1 sequence (P49146 1-381): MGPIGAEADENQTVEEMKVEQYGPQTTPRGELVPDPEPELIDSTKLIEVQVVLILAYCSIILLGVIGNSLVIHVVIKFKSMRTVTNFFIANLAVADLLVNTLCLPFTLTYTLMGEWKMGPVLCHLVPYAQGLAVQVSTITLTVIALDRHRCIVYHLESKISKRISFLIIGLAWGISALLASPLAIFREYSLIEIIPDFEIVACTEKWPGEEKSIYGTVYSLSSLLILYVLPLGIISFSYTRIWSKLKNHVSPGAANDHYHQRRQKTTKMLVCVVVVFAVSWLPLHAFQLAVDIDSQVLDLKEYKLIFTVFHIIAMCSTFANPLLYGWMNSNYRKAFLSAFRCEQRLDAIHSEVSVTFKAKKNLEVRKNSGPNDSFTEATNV
Experimental: The assay was performed using the fluorimetric imaging plate reader (FLIPR) format as described in Dautzenberg, F. M., Biochemical Pharmacology 2005, 69, 1493.
KAN-Ts cells stably expressing chimeric G proteins were seeded at a density of 100,000 cells into poly-d-lysine coated 384-well blackwall, clear-bottom microtiter plates (Corning, N.Y.). One day later, the medium was removed and 50 μl loading medium DMEM high glucose, without serum, supplemented with 10 mM HEPES-acid, 0.1% BSA, 5 mM probenecid and 2 μM Fluo-3AM was added. Cells were loaded for 1 h at 37° C., washed twice with 50 μl assay buffer (5 mM HEPES-acid, 140 mM NaCl, 1 mM MgCl2, 5 mM KCl, 10 mM glucose) and then 30 μl assay buffer was added. Cells were further pre-incubated at room temperature before adding agonists or agonists plus antagonists in 20 μl assay buffer and then measured on a T-channel fluorometric imaging plate reader (FLIPR, Molecular Devices, Sunnyvale, Calif.). Antagonistic potency values were converted to apparent pKB values using a modified Cheng-Prusoff correction. Apparent pKB was calculated as pKB=−log IC50/1+[conc agonist/EC50].

NPY Y2 receptor [2] = target: T1, NPY Y2 receptor; test: Neuropeptide Y2 radioligand binding assay ([125I]PYY, KAN-Ts cell membranes); conditions: membranes of KAN-Ts cells endogenously expressing Y2 receptors; [125I]PYY 80 pM; 1 h at rt; read-out: IC50 (μM), NPY Y2 binding
Procedure, shortened: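 Membranes from KAN-Ts cells (endogenous Y2) incubated 1 h at rt with 80 pM [125I]PYY ± compound in HEPES/NaCl binding buffer, then filtered and counted. Nonspecific binding defined with […]. IC50 from sigmoidal fits; apparent K = IC50/(1+C/KD).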

| Compound | Kb (NPY Y2 receptor [1]) | IC50 (NPY Y2 receptor [2]) |
| --- | --- | --- |
| CCN(CC)C(=O)C(c1ccccc1)N1CCN(c2ccc(-c3nc(C)no3)cc2Br)CC1 (centres unmarked) [Compound 203, 2-{4-[2-Bromo-4-(3-methyl-[1,2,4]oxadiazol-5-yl)-phenyl]-piperazin-1-yl}-N,N-diethyl-2-phenyl-acetamide] | 0.2 µM | 0.15 µM |
| CCN(CC)C(=O)C(c1ccccc1)N1CCN(c2ccc(-c3nc(C)no3)cc2C#N)CC1 (centres unmarked) [Compound 217, 2-{4-[2-Cyano-4-(3-methyl-[1,2,4]oxadiazol-5-yl)-phenyl]-piperazin-1-yl}-N,N-diethyl-2-phenyl-acetamide] | 0.0234 µM | 0.023 µM |
| CCN(CC)C(=O)C(c1ccccc1)N1CCN(c2ccc(-c3nc(C(C)C)no3)cc2C#N)CC1 (centres unmarked) [Compound 218, 2-{4-[2-Cyano-4-(3-isopropyl-[1,2,4]oxadiazol-5-yl)-phenyl]-piperazin-1-yl}-N,N-diethyl-2-phenyl-acetamide] | 0.0126 µM | 0.011 µM |
| CCN(CC)C(=O)C(c1cccc(F)c1)N1CCN(c2ccc(-c3nc(C)no3)cc2C#N)CC1 (centres unmarked) [Compound 263, 2-{4-[2-Cyano-4-(3-methyl-[1,2,4]oxadiazol-5-yl)-phenyl]-piperazin-1-yl}-N,N-diethyl-2-(3-fluoro-phenyl)-acetamide] | 0.02 µM | 0.035 µM |
